# Active and inactive are the calls of the source. The rule behind the calls is not given here.
# Tested on: UPR adaptive arm reporter cells, luciferase luminescence
# Assay: adaptive unfolded protein response reporter activation – cell-based, luciferase luminescence, dose response (AID 489032)
row,Structure (SMILES),EC50
1,CC(C)c1cccc(-c2ccc3c(c2)S(=O)(=O)c2cccc(C(=O)NCc4ccccc4Cl)c2C3=O)c1,38.4 µM (inactive)
2,N#C/C(=C\Nc1ccc2cn[nH]c2c1)c1nc(-c2ccc(Cl)cc2)cs1,15.1 µM
3,Cc1cccc(NC(=O)CSc2nc(C)c(CC(=O)c3ccc(Br)cc3)c(C)c2C#N)c1C,> 80 µM (inactive)
4,Cc1ccc(C(=O)C(C(=O)/C=C/c2ccccc2)=C2SCCCS2)cc1,> 80 µM (inactive)
5,CCOC(=O)C1=C(C)N=C2SC(C(=O)OC)=CC(=O)N2C1c1ccc(F)cc1 (stereo not given),32.6 µM (inactive)
6,Cc1cc(C)c2c(n1)sc1c(-c3ccccc3)c(C#N)c(N)nc12,> 80 µM (inactive)
7,CCOc1cc(/C=N/N=C(/N)c2nonc2N)cc(Br)c1OCc1ccc(Cl)cc1,> 80 µM (inactive)
8,Cc1ccc(C(C(=O)NCc2ccco2)N(C(=O)CNC(=O)c2cccs2)c2c(C)cc(C)cc2C)cc1 (stereo not given),> 80 µM (inactive)
9,Oc1ccc(/C=N/Nc2cc(N3CCOCC3)nc(N3CCOCC3)n2)cc1O,> 80 µM (inactive)
10,OC(CNCC1CCCO1)Cn1c2ccc(Cl)cc2c2cc(Cl)ccc21 (stereo not given),> 80 µM (inactive)
11,N#Cc1ccccc1NC(=O)COc1c(Br)cc(Br)c2cccnc12,> 80 µM (inactive)
12,CCOC(=O)/C(=C\c1ccccc1)C(=O)c1cc(C(C)=O)c(Nc2ccccc2)s1,> 80 µM (inactive)
13,Cc1cc(NC(=O)CSc2nc3sc(C)c(C)c3c(=O)n2C2CCCC2)no1,> 80 µM (inactive)
14,COc1ccc(C(CCNC(C)c2ccccc2)c2ccc(F)cc2)cc1 (stereo not given),> 80 µM (inactive)
15,C[C@H]1[C@H](C)CC[C@]2(C(=O)O)CC[C@]3(C)C(=CC[C@@H]4[C@@]5(C)C[C@@H](O)[C@H](O)C(C)(C)[C@@H]5CC[C@]43C)[C@H]12,> 80 µM (inactive)
16,CC1=CC(C)[C@H](/C=N/n2c(=O)[nH]c3c([nH]c4ccc(C)cc43)c2=O)C(C)C1 (stereo not given in full),> 80 µM (inactive)
17,C/C(=N/NC(=O)c1ccc(Cl)s1)c1ccc(NC(=O)COc2ccc(Cl)cc2)cc1,> 80 µM (inactive)
18,CCOC(=O)c1cc(-c2ccccc2)sc1NC(=O)c1ccc(OC)cc1,> 80 µM (inactive)
19,O=C(N/N=C/c1ccc(O)c(O)c1)c1ccc(CSc2cccc3cccnc23)cc1,> 80 µM (inactive)
20,CCc1ccc2nc(N(CCCN(C)C)C(=O)c3ccc(S(=O)(=O)N4CCc5ccccc5C4)cc3)sc2c1,> 80 µM (inactive)
21,COc1cc([C@H]2c3[nH]c4ccccc4c3C[C@H]3C(=O)N4[C@@H](c5cc(OC)c(OC)c(OC)c5)c5[nH]c6ccccc6c5C[C@H]4C(=O)N23)cc(OC)c1OC,12.1 µM
22,COc1ccc2cc(C)c3nnc(SCC(=O)Nc4nc(-c5ccc(F)cc5)cs4)n3c2c1,23.7 µM (inactive)
23,Cc1cc(N2CCN(c3nc(-c4ccc([N+](=O)[O-])cc4)cs3)CC2)c2ccccc2n1,> 80 µM (inactive)

row,Structure (SMILES),EC50
1,Cc1ccc2nc(Nc3nc(-c4ccccc4)cc(=O)[nH]3)nc(C)c2c1,19.3 µM
2,O=C(COC(=O)/C=C/c1cn(-c2ccccc2)nc1-c1cccnc1)Nc1ccc(Cl)cc1Cl,> 80 µM (inactive)
3,C#CCn1c(=NC(=O)c2ccc(Br)s2)sc2cccc(OC)c21,> 80 µM (inactive)
4,Cc1ccc(-c2[nH]ncc2/C=N/n2c(COc3ccccc3)nc3ccccc3c2=O)cc1,> 80 µM (inactive)
5,COc1c(Cl)cc(Cl)cc1/C=N/NC(=O)c1nnn(-c2nonc2N)c1CN1CCC(C)CC1,50 µM (inactive)
6,COc1ccc(Cc2nnc(N/N=C/c3ccc(N(C)C)cc3)[nH]c2=O)cc1OC,25.5 µM (inactive)
7,CCOc1cc(CNC(C)(C)CO)cc(Br)c1OCc1ccc(Cl)cc1Cl,20 µM
8,O=C(Cn1c2ccccc2c(=O)c2cc([N+](=O)[O-])ccc21)Nc1ccccc1Cl,> 80 µM (inactive)
9,O=S(=O)(c1ccc2nc(-c3ccccc3)[nH]c2c1)N1CCN(c2ccc(Cl)cc2)CC1,> 80 µM (inactive)
10,FC(F)(F)c1nnc2c(Sc3ccc(Cl)cc3)nc3ccccc3n12,> 80 µM (inactive)
11,COc1cc(OC)c2c(-c3cccc(-c4ccc(CO)cc4)c3)cc(=O)oc2c1,> 80 µM (inactive)
12,CC1=CC(C)(C)N2C(=O)C(=O)c3cc(OC(=O)c4ccco4)cc1c32,53.1 µM (inactive)
13,COc1ccc(C(CCNCc2ccccc2)c2ccc(F)cc2)cc1 (stereo not given),10.7 µM
14,Brc1cc(Br)c2ncnc(N3CCCCC3)c2c1,44.5 µM (inactive)
15,Cc1cnc(NC(=O)c2cc(S(=O)(=O)N(C)C)ccc2N2CCCC2)s1,6.6 µM
16,O=c1cc(CN2CCN(c3ccccc3)CC2)c2cc(O)c(-c3ccccc3)cc2o1,27.4 µM (inactive)
17,COc1ccc(-c2c/c(=N\c3nc(-c4ccccc4)c(C)s3)c3ccccc3o2)cc1O,> 80 µM (inactive)
18,CCCCCCCCCCOC(=O)Cn1c(COc2ccccc2C)[n+](C)c2ccccc21,> 80 µM (inactive)
19,CCOc1ccccc1CNC(=O)C1CCN(c2nnc(C)c3c(C)n(-c4ccc(C)cc4)nc23)CC1,> 80 µM (inactive)
20,CCOC(=O)c1c(NC(=O)c2cc(C)on2)c2cc([N+](=O)[O-])ccc2n1C,> 80 µM (inactive)
21,CCC(=O)Nc1ccc(-c2cc(-c3ccccc3)nc(-c3ccc(NC(=O)CC)cc3)n2)cc1,> 80 µM (inactive)
22,COc1ccc(N=Cc2c(O)c3ccccc3oc2=O)cc1,12.2 µM

# From PubChem BioAssay AID489032 (Sanford-Burnham Center for Chemical Genomics, 2010)
